From US8338422B2, “Indolin-2-ones and aza-indolin-2-ones” (Janssen Pharmaceutica NV, priority 2007, dated 2012)

Tests used:
[1] = test system: MDA/MB231; assay: Cellular proliferation assay (Alamar blue), MDA/MB231; format: cell-based; details: Homo sapiens, MDA-MB-231, 72 h, MDA/MB231 cells, 72 hours with compound, 10% FCS, read-out: pIC50 MDA/MB231 (converted)
In short: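 Cells in 10% FCS were seeded and left 24 h without compound, then treated for 72 h at 37° C. Viability read with Alamar blue (resazurin 9 μg/ml, ferro-/ferricyanide 90 μM each), incubated 4 h for H460 and 24 h for MDA-MB-231; fluorescence 544/590 nm, effect relative to control cells.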

[2] = test system: H1299; assay: Cellular proliferation assay (Alamar blue), H1299; format: cell-based; details: Homo sapiens, NCI-H1299, 72 h, H1299 cells, 72 hours with compound, 10% FCS, read-out: pIC50 H1299 (converted)
In short: (§1)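 Proliferation was assessed over 72 h of compound treatment, following 24 h of seeding without compound, under 10% FCS, 37° C. and 5% CO2. Fluorescent resazurin product was measured and compared with control cells.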

[3] = test system: PC-3; assay: Cellular proliferation assay (Alamar blue), PC-3; format: cell-based; details: Homo sapiens, PC-3, 72 h, PC-3 cells, 72 hours with compound, 10% FCS, read-out: pIC50 PC-3 (converted)
In short: as §1

[4] = biological target: PLK4 (h) (Homo sapiens, UniProt O00444); assay: PLK-4 human kinase assay (SPA); format: biochemical; details: read-out: PLK4 pIC50 (converted)
Chain of PLK4 (h) (O00444 whole entry): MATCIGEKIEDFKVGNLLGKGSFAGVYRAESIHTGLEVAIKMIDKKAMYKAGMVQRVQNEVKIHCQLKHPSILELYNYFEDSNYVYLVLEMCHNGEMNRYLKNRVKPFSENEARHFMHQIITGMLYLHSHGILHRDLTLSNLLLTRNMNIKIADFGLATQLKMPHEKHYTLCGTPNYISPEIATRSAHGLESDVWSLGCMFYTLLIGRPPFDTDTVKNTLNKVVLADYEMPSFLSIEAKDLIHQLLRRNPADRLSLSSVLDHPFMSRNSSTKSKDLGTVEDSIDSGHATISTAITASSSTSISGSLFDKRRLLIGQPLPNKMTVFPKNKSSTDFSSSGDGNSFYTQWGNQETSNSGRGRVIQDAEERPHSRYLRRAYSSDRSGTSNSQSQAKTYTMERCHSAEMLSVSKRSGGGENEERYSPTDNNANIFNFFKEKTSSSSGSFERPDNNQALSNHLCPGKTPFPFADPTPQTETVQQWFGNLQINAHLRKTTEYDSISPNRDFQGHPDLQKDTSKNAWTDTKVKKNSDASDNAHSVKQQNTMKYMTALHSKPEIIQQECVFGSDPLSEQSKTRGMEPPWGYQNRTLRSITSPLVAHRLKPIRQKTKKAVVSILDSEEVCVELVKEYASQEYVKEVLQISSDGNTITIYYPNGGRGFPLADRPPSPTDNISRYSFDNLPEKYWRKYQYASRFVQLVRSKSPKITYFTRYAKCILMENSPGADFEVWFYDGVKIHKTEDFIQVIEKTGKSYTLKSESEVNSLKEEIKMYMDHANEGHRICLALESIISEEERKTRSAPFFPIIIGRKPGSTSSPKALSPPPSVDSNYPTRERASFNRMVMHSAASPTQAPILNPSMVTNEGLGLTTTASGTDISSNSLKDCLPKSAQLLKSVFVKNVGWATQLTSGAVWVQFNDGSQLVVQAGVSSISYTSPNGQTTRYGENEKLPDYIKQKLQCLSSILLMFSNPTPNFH
In short: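 Radiometric readout: 33P-labelled peptide captured on streptavidin SPA beads after EDTA stop, imaged by Leadseeker. Reaction ran 60 min at room temperature in Hepes pH 8.0 buffer. It contained 1 μM ATP with 2 nM [γ-33P]ATP, 10 μM biotinylated peptide and PLK4 (h) at 19 μg/ml.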

[5] = test system: A2780; assay: Cellular proliferation assay (Alamar blue), A2780; format: cell-based; details: Homo sapiens, A2780, 72 h, A2780 cells, 72 hours with compound, 10% FCS, read-out: pIC50 A2780 (converted)
In short: as §1

[6] = test system: HCT-116; assay: Cellular proliferation assay (Alamar blue), HCT-116; format: cell-based; details: Homo sapiens, HCT-116, 72 h, HCT-116 cells, 72 hours with compound, 10% FCS, read-out: pIC50 HCT-116 (converted)
In short: as §1

[7] = biological target: CDK1/CyclinB (h) (Homo sapiens, UniProt P06493); assay: CDK1/CyclinB human kinase assay (FRET); format: biochemical; details: read-out: CDK1 pIC50 (converted)
Chain of CDK1/CyclinB (h) (P06493 whole entry): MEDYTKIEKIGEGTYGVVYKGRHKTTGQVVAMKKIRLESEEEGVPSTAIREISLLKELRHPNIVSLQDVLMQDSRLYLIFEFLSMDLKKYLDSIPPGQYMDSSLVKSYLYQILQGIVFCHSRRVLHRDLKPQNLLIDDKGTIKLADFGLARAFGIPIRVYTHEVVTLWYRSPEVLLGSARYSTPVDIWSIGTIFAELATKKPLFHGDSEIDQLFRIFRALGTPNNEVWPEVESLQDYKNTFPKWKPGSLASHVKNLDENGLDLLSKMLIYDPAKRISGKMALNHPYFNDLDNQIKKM
Chain of CDK1/CyclinB (h) (P14635 whole entry partner): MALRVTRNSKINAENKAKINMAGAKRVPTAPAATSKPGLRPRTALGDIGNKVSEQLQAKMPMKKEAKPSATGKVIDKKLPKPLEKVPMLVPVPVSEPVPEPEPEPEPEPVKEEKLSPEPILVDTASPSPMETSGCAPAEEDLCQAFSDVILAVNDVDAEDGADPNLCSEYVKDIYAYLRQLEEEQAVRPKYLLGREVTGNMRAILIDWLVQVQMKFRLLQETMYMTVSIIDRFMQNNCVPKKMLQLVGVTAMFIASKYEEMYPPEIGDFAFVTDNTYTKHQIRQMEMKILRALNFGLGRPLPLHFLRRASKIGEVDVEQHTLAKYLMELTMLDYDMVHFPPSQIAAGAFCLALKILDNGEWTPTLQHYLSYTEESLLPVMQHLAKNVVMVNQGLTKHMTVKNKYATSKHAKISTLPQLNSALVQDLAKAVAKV
In short: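 Z'-LYTE FRET format: 0.2 μg/ml enzyme with 2 μM Ser/Thr peptide 12 and 10 μM ATP in 50 mM Hepes pH 7.5, 10 mM MgCl2, 1 mM EGTA, 0.01% Brij-35, 60 min at room temperature. Protease development 60 min; coumarin/fluorescein emission ratio (460/538 nm, excitation 390 nm) reports phosphorylation.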

[8] = biological target: GSK3β (h) (Homo sapiens, UniProt P49841); assay: GSK-3β human kinase assay (SPA); format: biochemical; details: read-out: GSK3B pIC50 (converted)
Chain of GSK3β (h) (P49841 whole entry): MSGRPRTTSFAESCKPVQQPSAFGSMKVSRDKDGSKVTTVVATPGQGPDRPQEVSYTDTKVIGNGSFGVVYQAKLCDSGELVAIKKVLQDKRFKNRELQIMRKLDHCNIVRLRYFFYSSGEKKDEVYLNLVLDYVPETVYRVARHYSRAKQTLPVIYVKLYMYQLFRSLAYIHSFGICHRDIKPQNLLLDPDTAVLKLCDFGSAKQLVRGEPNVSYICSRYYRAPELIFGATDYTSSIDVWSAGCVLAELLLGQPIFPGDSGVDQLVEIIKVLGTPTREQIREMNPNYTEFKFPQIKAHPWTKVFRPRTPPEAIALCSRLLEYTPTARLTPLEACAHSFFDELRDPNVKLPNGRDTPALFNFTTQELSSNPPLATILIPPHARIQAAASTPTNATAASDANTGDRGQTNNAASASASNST
In short: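 Radiometric SPA read-out: after EDTA stop, biotinylated 33P-labelled peptide bound streptavidin PVT beads and was imaged on Leadseeker. Reaction: 60 min, room temperature, GSK3β (h) at 1 μg/ml, 1 μM substrate peptide, 1 μM ATP with 2 nM [γ-33P]ATP, Tris pH 7.4/MgCl2/DTT buffer.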

[9] = biological target: AuroraB (h) (Homo sapiens, UniProt Q96GD4); assay: Aurora-B human kinase assay (SPA); format: biochemical; details: read-out: AuroraB pIC50 (converted)
Chain of AuroraB (h) (Q96GD4 whole entry): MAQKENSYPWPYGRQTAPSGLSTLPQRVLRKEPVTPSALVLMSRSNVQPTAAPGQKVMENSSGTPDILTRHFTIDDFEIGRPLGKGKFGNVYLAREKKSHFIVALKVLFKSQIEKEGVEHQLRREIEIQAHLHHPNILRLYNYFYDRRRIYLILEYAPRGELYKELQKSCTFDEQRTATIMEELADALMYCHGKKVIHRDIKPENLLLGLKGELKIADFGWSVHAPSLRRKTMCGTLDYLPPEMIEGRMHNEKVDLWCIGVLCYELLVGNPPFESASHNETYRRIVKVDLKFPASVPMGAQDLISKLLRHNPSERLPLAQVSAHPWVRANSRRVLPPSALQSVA
In short: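 Scintillation proximity assay: AuroraB (h) at 0.5 μg/ml with 3 μM biotinylated peptide, 0.5 μM ATP and 2.2 nM [γ-33P]ATP in 60 mM Hepes pH 7.5, 3 mM MgCl2, 3 mM MnCl2, 2 mM DTT. 60 min at room temperature, EDTA stop, streptavidin PVT beads read on Leadseeker.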

[10] = test system: U87MG; assay: Cellular proliferation assay (Alamar blue), U87MG; format: cell-based; details: Homo sapiens, U-87 MG, 72 h, U87MG cells, 72 hours with compound, 10% FCS, read-out: pIC50 U87MG (converted)
In short: as §1

Compound | IC50 [1] | IC50 [2] | IC50 [3] | IC50 [4] | IC50 [5] | IC50 [6] | IC50 [7] | IC50 [8] | IC50 [9] | IC50 [10]
CN1CCNc2ncnc3c2/C(=C/Nc2cccc(c2)OCCCCCC1=O)C(=O)N3 [Compound 39] | > 10 µM | > 10 µM | > 10 µM | 3.72 µM | > 10 µM | 3.8 µM | 5.62 µM | 0.282 µM | 1.26 µM | 7.94 µM
CN1CCNC(=O)CCCOc2cccc(c2)N/C=C2\C(=O)Nc3ncnc1c32 [Compound 40] | > 10 µM | > 10 µM | > 10 µM | 4.9 µM | > 10 µM | > 10 µM | 7.08 µM | 1.51 µM | 8.32 µM | > 10 µM
CN1CCNC(=O)CCCCCOc2cccc(c2)N/C=C2\C(=O)Nc3ncnc1c32 [Compound 41] | > 10 µM | > 10 µM | > 10 µM | 1.78 µM | > 10 µM | > 10 µM | 5.01 µM | 2.45 µM | > 10 µM | > 10 µM
CN1CCNc2ncnc3c2/C(=C/Nc2cccc(c2)OCCCCC1=O)C(=O)N3 [Compound 42] | > 10 µM | > 10 µM | > 10 µM | 1.7 µM | > 10 µM | 2.19 µM | 5.89 µM | 0.295 µM | 1.38 µM | > 10 µM
COc1ccc2cc1OCCCCC(=O)N(C)CCNc1ncnc3c1/C(=C/N2)C(=O)N3 [Compound 45] | > 10 µM | 2.82 µM | 9.12 µM | 0.537 µM | > 10 µM | 1.91 µM | 2.19 µM | 0.12 µM | 0.24 µM | 1.66 µM
COc1ccc2cc1OCCCCCCC(=O)NCCN(C)c1ncnc3c1/C(=C/N2)C(=O)N3 [Compound 47] | > 10 µM | > 10 µM | > 10 µM | 2.29 µM | > 10 µM | > 10 µM | > 10 µM | 4.79 µM | 8.71 µM | > 10 µM
COc1ccc2cc1CN(C)CCCCCC(=O)NCCN(C)c1ncnc3c1/C(=C/N2)C(=O)N3 [Compound 48] | > 10 µM | > 10 µM | > 10 µM | > 10 µM | > 10 µM | > 10 µM | > 10 µM | > 10 µM | > 10 µM | > 10 µM
CN1CCNC(=O)CCCCCCOc2cc(ccc2Cl)N/C=C2\C(=O)Nc3ncnc1c32 [Compound 49] | > 10 µM | > 10 µM | > 10 µM | 7.41 µM | > 10 µM | > 10 µM | > 10 µM | > 10 µM | > 10 µM | > 10 µM
COc1ccc2cc1CN(C)CCCCCCC(=O)NCCN(C)c1ncnc3c1/C(=C/N2)C(=O)N3 [Compound 50] | > 10 µM | > 10 µM | > 10 µM | > 10 µM | > 10 µM | > 10 µM | > 10 µM | > 10 µM | > 10 µM | > 10 µM
COc1ccc2cc1CN(C)CCCCC(=O)NCCN(C)c1ncnc3c1/C(=C/N2)C(=O)N3 [Compound 51] | > 10 µM | > 10 µM | > 10 µM | > 10 µM | > 10 µM | > 10 µM | > 10 µM | > 10 µM | > 10 µM | > 10 µM
